Tests used:
human OX1 receptor = target: T1, human OX1 receptor (Homo sapiens, UniProt O43613); assay: Measurement of orexin receptor antagonistic activity (calcium fluorescence, FLIPRtetra); assay type: cell-based; settings: CHO, 10 μM test compound; CHO cells expressing human OX1 receptor; OX-A 1 nM; read-out: Human Orexin1 receptor inhibition (at 10 μM)
T1 construct: expressed in transfected cells; host or cells: CHO cells
T1 sequence (O43613 1-425): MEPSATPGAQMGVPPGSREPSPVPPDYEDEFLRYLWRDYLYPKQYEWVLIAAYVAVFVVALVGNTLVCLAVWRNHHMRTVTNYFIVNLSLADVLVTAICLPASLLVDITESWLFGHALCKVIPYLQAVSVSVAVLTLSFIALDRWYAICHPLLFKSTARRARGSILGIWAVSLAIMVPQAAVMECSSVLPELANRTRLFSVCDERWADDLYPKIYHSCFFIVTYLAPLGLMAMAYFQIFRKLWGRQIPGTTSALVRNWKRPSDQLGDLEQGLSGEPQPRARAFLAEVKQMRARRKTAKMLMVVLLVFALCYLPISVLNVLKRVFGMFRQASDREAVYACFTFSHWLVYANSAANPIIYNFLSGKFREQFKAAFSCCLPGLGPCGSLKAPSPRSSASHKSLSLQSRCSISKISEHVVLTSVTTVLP
Procedure, shortened: (§1)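 Calcium fluorescence measured by FLIPRtetra every second for 2 min after orexin-A challenge, 1 nM final for OX1 and 0.3 nM final for OX2. Receptor-expressing CHO cells received compound in HEPES-buffered HBSS with 0.1% BSA just before agonist.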

human OX2 receptor = target: T2, human OX2 receptor (Homo sapiens, UniProt O43614); assay: as above; assay type: cell-based; settings: CHO, 10 μM test compound; CHO cells expressing human OX2 receptor; OX-A 0.3 nM; read-out: Human Orexin2 receptor inhibition (at 10 μM)
T2 construct: expressed in transfected cells; host or cells: CHO cells
T2 sequence (O43614 1-444): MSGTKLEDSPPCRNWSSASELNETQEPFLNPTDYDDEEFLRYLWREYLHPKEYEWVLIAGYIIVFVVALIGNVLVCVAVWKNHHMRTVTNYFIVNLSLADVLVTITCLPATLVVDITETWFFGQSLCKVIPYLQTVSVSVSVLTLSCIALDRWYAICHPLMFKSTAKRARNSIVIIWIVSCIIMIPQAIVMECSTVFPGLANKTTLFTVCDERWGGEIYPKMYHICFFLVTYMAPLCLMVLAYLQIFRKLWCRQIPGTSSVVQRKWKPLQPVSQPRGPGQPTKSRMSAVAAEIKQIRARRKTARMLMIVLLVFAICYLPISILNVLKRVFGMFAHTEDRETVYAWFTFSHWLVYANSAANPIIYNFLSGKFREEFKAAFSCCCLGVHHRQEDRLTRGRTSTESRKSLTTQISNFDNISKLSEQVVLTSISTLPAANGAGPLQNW
Procedure, shortened: as §1

| Structure (SMILES) | inhibition at 10 µM (human OX1 receptor) [%] | inhibition at 10 µM (human OX2 receptor) [%] |
| --- | --- | --- |
| CC[C@@H]1CON(c2cc(C)nc(C)n2)CCN1C(=O)c1ccccc1-n1nccn1 [Example 168, ((6R)-2-(2,6-dimethylpyrimidin-4-yl)-6-ethyl-1,2,5-oxadiazepan-5-yl)(2-(2H-1,2,3-triazol-2-yl)phenyl)methanone] | 95 | 99 |
| CC[C@@H]1CON(c2cc(C)nc(C)n2)CCN1C(=O)c1ccccc1-c1nccs1 [Example 169, ((6R)-2-(2,6-dimethylpyrimidin-4-yl)-6-ethyl-1,2,5-oxadiazepan-5-yl)(2-(1,3-thiazol-2-yl)phenyl)methanone] | 100 | 99 |
| Cc1cc(N2CCN(C(=O)c3ccccc3-n3nccn3)[C@@H](C)CO2)nc(C)n1 [Example 170, ((6S)-2-(2,6-dimethylpyrimidin-4-yl)-6-methyl-1,2,5-oxadiazepan-5-yl)(2-(2H-1,2,3-triazol-2-yl)phenyl)methanone] | 20 | 100 |
| Cc1cc(N2CCN(C(=O)c3ccccc3-c3nccs3)[C@@H](C)CO2)nc(C)n1 [Example 171, ((6S)-2-(2,6-dimethylpyrimidin-4-yl)-6-methyl-1,2,5-oxadiazepan-5-yl)(2-(1,3-thiazol-2-yl)phenyl)methanone] | 37 | 102 |
| Cc1cc(N2C[C@H](C)N(C(=O)c3ccccc3-n3nccn3)[C@H](C)CO2)nc(C)n1 [Example 172, ((4S,6R)-2-(2,6-dimethylpyrimidin-4-yl)-4,6-dimethyl-1,2,5-oxadiazepan-5-yl)(2-(2H-1,2,3-triazol-2-yl)phenyl)methanone] | 103 | 100 |
| Cc1nccc(N2C[C@H](C)N(C(=O)c3ccccc3-n3nccn3)[C@H](C)CO2)n1 [Example 173, ((4S,6R)-4,6-dimethyl-2-(2-methylpyrimidin-4-yl)-1,2,5-oxadiazepan-5-yl) (2-(2H-1,2,3-triazol-2-yl)phenyl)methanone] | 103 | 103 |
| Cc1cc(N2C[C@H](C)N(C(=O)c3ccccc3-n3nccn3)[C@H](C)CO2)ncn1 [Example 174, ((4S,6R)-4,6-dimethyl-2-(6-methylpyrimidin-4-yl)-1,2,5-oxadiazepan-5-yl) (2-(2H-1,2,3-triazol-2-yl)phenyl)methanone] | 95 | 98 |
| C[C@@H]1CON(c2ccnc(C3CC3)n2)C[C@H](C)N1C(=O)c1ccccc1-n1nccn1 [Example 175, ((4S,6R)-2-(2-cyclopropylpyrimidin-4-yl)-4,6-dimethyl-1,2,5-oxadiazepan-5-yl) (2-(2H-1,2,3-triazol-2-yl)phenyl)methanone] | 99 | 98 |
| Cc1ccc(-n2nccn2)c(C(=O)N2[C@H](C)CON(c3cc(C)nc(C)n3)C[C@@H]2C)c1 [Example 176, ((4S,6R)-2-(2,6-dimethylpyrimidin-4-yl)-4,6-dimethyl-1,2,5-oxadiazepan-5-yl)(5-methyl-2-(2H-1,2,3-triazol-2-yl)phenyl)methanone] | 103 | 101 |
| Cc1ccc(-n2nccn2)c(C(=O)N2[C@H](C)CON(c3cc(C)nc(C(F)(F)F)n3)C[C@@H]2C)c1 [Example 177, ((4S,6R)-4,6-dimethyl-2-(6-methyl-2-(trifluoromethyl)pyrimidin-4-yl)-1,2,5-oxadiazepan-5-yl) (5-methyl-2-(2H-1,2,3-triazol-2-yl)phenyl)methanone] | 102 | 106 |
| Cc1ccc(-n2nccn2)c(C(=O)N2[C@H](C)CON(c3cc(C(F)(F)F)nc(C)n3)C[C@@H]2C)c1 [Example 178, ((4S,6R)-4,6-dimethyl-2-(2-methyl-6-(trifluoromethyl)pyrimidin-4-yl)-1,2,5-oxadiazepan-5-yl) (5-methyl-2-(2H-1,2,3-triazol-2-yl)phenyl)methanone] | 105 | 99 |
| Cc1ccc(-n2nccn2)c(C(=O)N2[C@H](C)CON(c3cc(C(F)F)nc(C)n3)C[C@@H]2C)c1 [Example 179, ((4S,6R)-2-(6-(difluoromethyl)-2-methylpyrimidin-4-yl)-4,6-dimethyl-1,2,5-oxadiazepan-5-yl) (5-methyl-2-(2H-1,2,3-triazol-2-yl)phenyl)methanone] | 102 | 98 |
| Cc1nc(C(F)F)cc(N2C[C@H](C)N(C(=O)c3cc(F)ccc3-n3nccn3)[C@H](C)CO2)n1 [Example 180, ((4S,6R)-2-(6-(difluoromethyl)-2-methylpyrimidin-4-yl)-4,6-dimethyl-1,2,5-oxadiazepan-5-yl)(5-fluoro-2-(2H-1,2,3-triazol-2-yl)phenyl)methanone] | 90 | 101 |
| Cc1nc(N2C[C@H](C)N(C(=O)c3cc(F)ccc3-n3nccn3)[C@H](C)CO2)cc(C(F)(F)F)n1 [Example 181, ((4S,6R)-4,6-dimethyl-2-(2-methyl-6-(trifluoromethyl)pyrimidin-4-yl)-1,2,5-oxadiazepan-5-yl)(5-fluoro-2-(2H-1,2,3-triazol-2-yl)phenyl)methanone] | 70 | 83 |
| Cc1nc(C(F)F)cc(N2C[C@H](C)N(C(=O)c3cc(Cl)ccc3-n3nccn3)[C@H](C)CO2)n1 [Example 182, (5-chloro-2-(2H-1,2,3-triazol-2-yl)phenyl)((4S,6R)-2-(6-(difluoromethyl)-2-methylpyrimidin-4-yl)-4,6-dimethyl-1,2,5-oxadiazepan-5-yl)methanone] | 100 | 98 |
| Cc1nc(N2C[C@H](C)N(C(=O)c3cc(Cl)ccc3-n3nccn3)[C@H](C)CO2)cc(C(F)(F)F)n1 [Example 183, (5-chloro-2-(2H-1,2,3-triazol-2-yl)phenyl)((4S,6R)-4,6-dimethyl-2-(2-methyl-6-(trifluoromethyl)pyrimidin-4-yl)-1,2,5-oxadiazepan-5-yl)methanone] | 105 | 103 |
| Cc1nccc(N2C[C@H](C)N(C(=O)c3ccccc3-c3nccs3)[C@H](C)CO2)n1 [Example 184, ((4S,6R)-4,6-dimethyl-2-(2-methylpyrimidin-4-yl)-1,2,5-oxadiazepan-5-yl)(2-(1,3-thiazol-2-yl)phenyl)methanone] | 100 | 102 |
| Cc1cc(N2C[C@@H](C)N(C(=O)c3ccccc3-n3nccn3)[C@@H](C)CO2)nc(C)n1 [Example 185, ((4R,6S)-2-(2,6-dimethylpyrimidin-4-yl)-4,6-dimethyl-1,2,5-oxadiazepan-5-yl)(2-(2H-1,2,3-triazol-2-yl)phenyl)methanone] | 22 | 31 |
| Cc1cc(N2C[C@@H](C)N(C(=O)c3ccccc3-c3nccs3)[C@@H](C)CO2)nc(C)n1 [Example 186, ((4R,6S)-2-(2,6-dimethylpyrimidin-4-yl)-4,6-dimethyl-1,2,5-oxadiazepan-5-yl)(2-(1,3-thiazol-2-yl)phenyl)methanone] | 23 | 66 |
| Cc1cc(N2CC(C)N(C(=O)c3ccccc3-n3nccn3)CCO2)nc(C)n1 (stereo not shown) [Example 187, (2-(2,6-dimethylpyrimidin-4-yl)-4-methyl-1,2,5-oxadiazepan-5-yl)(2-(2H-1,2,3-triazol-2-yl)phenyl)methanone] | 100 | 103 |
| Cc1cc(N2OCCN(C(=O)c3ccccc3-n3nccn3)CC2C)nc(C)n1 (stereo not shown) [Example 188, (2-(2,6-dimethylpyrimidin-4-yl)-3-methyl-1,2,5-oxadiazepan-5-yl)(2-(2H-1,2,3-triazol-2-yl)phenyl)methanone] | 13 | 29 |
| Cc1cc(N2CC(C)N(C(=O)c3ccccc3-n3nccn3)C[C@H](C)O2)nc(C)n1 (stereo partly drawn) [Example 189, ((7S)-2-(2,6-dimethylpyrimidin-4-yl)-4,7-dimethyl-1,2,5-oxadiazepan-5-yl)(2-(2H-1,2,3-triazol-2-yl)phenyl)methanone] | 37 | 57 |
| Cc1cc(N2C[C@H](C)N(C(=O)c3ccccc3-n3nccn3)CC(C)O2)nc(C)n1 (stereo partly drawn) [Example 190, ((4S)-2-(2,6-dimethylpyrimidin-4-yl)-4,7-dimethyl-1,2,5-oxadiazepan-5-yl)(2-(2H-1,2,3-triazol-2-yl)phenyl)methanone] | 107 | 111 |
